Test results from the supplement of paper PMC10307832.

Tests used:
Assay in all cases: relative viability (nuclei count vs DMSO), 5 days (fraction); higher = more cells survive
5-Fluorouracil + OSI-027 = compound: O=c1[nH]cc(F)c(=O)[nH]1 [5-Fluorouracil] + COc1cccc2cc(-c3nc([C@H]4CC[C@H](C(=O)O)CC4)n4ncnc(N)c34)[nH]c12 [OSI-027] (partner 0.5 µM)
How it was run: (§1)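 Each reported value is a median over duplicate plates. It expresses relative viability: treated-well nuclei count divided by vehicle-well nuclei count. Lung cancer cell lines in 1536-well plates were dosed by pin tool a day after seeding, alone with one drug or with a fixed anchor-drug dose plus five library-drug doses (not always all listed) in √10 steps, and nuclei were counted after 5 days.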

[1] = compound: CN[C@@H]1C[C@H]2O[C@@](C)([C@@H]1OC)n1c3ccccc3c3c4c(c5c6ccccc6n2c5c31)C(=O)NC4 [Staurosporine] + Nc1nc2[nH]cc(CCc3ccc(C(=O)N[C@@H](CCC(=O)O)C(=O)O)cc3)c2c(=O)[nH]1 [Pemetrexed] (partner 0.2 µM)
How it was run: as §1

Sulindac + Bortezomib = compound: CC1=C(CC(=O)O)c2cc(F)ccc2/C1=C\c1ccc([S+](C)[O-])cc1 [Sulindac] + CC(C)C[C@H](NC(=O)[C@H](Cc1ccccc1)NC(=O)c1cnccn1)B(O)O [Bortezomib] (partner 0.002 µM)
How it was run: as §1

Sulindac + Linsitinib = compound: CC1=C(CC(=O)O)c2cc(F)ccc2/C1=C\c1ccc([S+](C)[O-])cc1 [Sulindac] + C[C@]1(O)C[C@@H](c2nc(-c3ccc4ccc(-c5ccccc5)nc4c3)c3c(N)nccn32)C1 [Linsitinib] (partner 1 µM)
How it was run: as §1

Cell Line | relative viability (5-Fluorouracil + OSI-027; first compound 0.02 µM) | relative viability (5-Fluorouracil + OSI-027; first compound 0.2 µM) | relative viability (5-Fluorouracil + OSI-027; first compound 0.6325 µM) | relative viability (5-Fluorouracil + OSI-027; first compound 2 µM) | relative viability ([1]; first compound 0.005 µM) | relative viability ([1]; first compound 0.01581 µM) | relative viability ([1]; first compound 0.05 µM) | relative viability ([1]; first compound 0.1581 µM) | relative viability ([1]; first compound 0.5 µM) | relative viability (Sulindac + Bortezomib; first compound 0.08 µM) | relative viability (Sulindac + Bortezomib; first compound 0.253 µM) | relative viability (Sulindac + Bortezomib; first compound 0.8 µM) | relative viability (Sulindac + Bortezomib; first compound 2.53 µM) | relative viability (Sulindac + Bortezomib; first compound 8 µM) | relative viability (Sulindac + Linsitinib; first compound 0.08 µM) | relative viability (Sulindac + Linsitinib; first compound 0.253 µM) | relative viability (Sulindac + Linsitinib; first compound 0.8 µM) | relative viability (Sulindac + Linsitinib; first compound 2.53 µM) | relative viability (Sulindac + Linsitinib; first compound 8 µM)
LU99A | 0.262 | 0.272 | 0.311 | 0.223 | 0.178 | 0.168 | 0.16 | 0.114 | 0.119 | 1.22 | 1.09 | 1.11 | 0.91 | 1.19 | 0.578 | 0.524 | 0.493 | 0.499 | 0.659
LXF-289 | 0.808 | 0.612 | 0.356 | 0.258 | 0.812 | 0.182 | 0.307 | 0.0978 | 0.159 | 1.06 | 1.04 | 0.991 | 1.04 | 0.974 | 1.02 | 0.984 | 0.931 | 1.05 | 0.993
NCI-H23 | 0.618 | 0.56 | 0.388 | 0.252 | 0.459 | 0.143 | 0.216 | 0.163 | 0.113 | 0.991 | 1.26 | 0.58 | 1.25 | 1.27 | 0.584 | 0.6 | 0.32 | 0.678 | 0.758
NCI-H322M | 0.534 | 0.563 | 0.486 | 0.449 | 0.608 | 0.501 | 0.451 | 0.423 | 0.388 | 1.22 | 1.33 | 1.19 | 1.3 | 1.38 | 1.01 | 1.01 | 0.747 | 0.951 | 1.05
NCI-H441 | 0.779 | 0.523 | 0.322 | 0.326 | 0.246 | 0.203 | 0.177 | 0.157 | 0.147 | 0.594 | 0.54 | 0.458 | 0.422 | 1.11 | 0.469 | 0.375 | 0.48 | 0.638 | 0.849
NCI-H460 | 0.803 | 0.35 | 0.0996 | 0.0548 | 0.065 | 0.0547 | 0.0426 | 0.0415 | 0.0101 | – | 1.19 | – | 1.12 | 1.67 | 1.13 | 0.79 | – | 0.988 | 1.15
NCI-H520 | 0.191 | 0.294 | 0.252 | 0.226 | 0.579 | 0.394 | 0.295 | 0.181 | 0.148 | 0.585 | 0.599 | 0.51 | 0.399 | 0.764 | 1.24 | 1.1 | 0.739 | 0.997 | 1.33
NCI-H596 | 0.832 | 0.82 | 0.623 | 0.337 | 0.485 | 0.265 | 0.297 | 0.27 | 0.148 | 1.04 | 1.08 | 0.831 | 1 | 1.21 | 0.943 | 0.985 | 0.857 | 1.12 | 1.27
NCI-H647 | 0.616 | 0.724 | 0.464 | 0.378 | 0.118 | 0.0997 | 0.104 | 0.0736 | 0.0566 | 1.02 | 1.13 | 0.667 | 0.936 | 1.05 | 1.14 | 1.3 | 1.4 | 1.25 | 1.21
NCI-H650 | 0.493 | 0.357 | 0.362 | 0.267 | 0.64 | 0.257 | 0.235 | 0.23 | 0.228 | 0.845 | 0.877 | 0.862 | 0.897 | 1.08 | 0.973 | 0.87 | 0.62 | 0.817 | 1.23
NCI-H661 | 0.674 | – | 0.661 | 0.691 | 0.901 | 0.667 | 0.542 | 0.353 | 0.186 | 0.726 | 0.769 | 0.688 | 0.852 | 0.885 | 0.585 | 0.564 | 0.501 | 0.637 | 0.711
NCI-H838 | 0.42 | 0.373 | 0.252 | 0.209 | 0.205 | 0.148 | 0.144 | 0.111 | 0.112 | 0.951 | 0.774 | 0.512 | 0.628 | 0.76 | 1.19 | 1.06 | 0.848 | 1.01 | 1.2
NCI-H1355 | 0.465 | 0.4 | 0.274 | 0.268 | 0.999 | 0.609 | 0.449 | 0.27 | 0.2 | 1.27 | 1.23 | 1.12 | 1.24 | 1.3 | 0.873 | 0.949 | 0.777 | 0.785 | 0.883
NCI-H1437 | 0.495 | 0.23 | 0.205 | 0.188 | 0.268 | 0.214 | 0.182 | 0.17 | 0.131 | 0.553 | 0.767 | 0.293 | 0.418 | 0.688 | 1.33 | 1.14 | 0.628 | 1.09 | 1.26
NCI-H1563 | 0.679 | 0.791 | 0.7 | 0.696 | 0.543 | 0.39 | 0.522 | 0.45 | 0.41 | 0.848 | 0.876 | 0.793 | 0.779 | 0.925 | 1.13 | 1.15 | 1.03 | 1.15 | 1.31
NCI-H1651 | 0.832 | 0.628 | 0.507 | 0.475 | 0.613 | 0.426 | 0.274 | 0.156 | 0.159 | 1.01 | 0.953 | – | 0.958 | 1.04 | 1.1 | 1.01 | 0.777 | 0.955 | 1.27
NCI-H1666 | 0.869 | 0.551 | 0.488 | 0.508 | 0.737 | 0.613 | 0.53 | 0.538 | 0.415 | – | 0.724 | 0.729 | 0.767 | 0.937 | – | 0.797 | 0.854 | 0.779 | 0.854
